Read-outs that look alike come from different tables or passages of the source.
Key:
Assay type in all cases: in vivo
[1] = tested on: Viola tricolor (VIOTR); experiment: Pre-emergence herbicidal action against VIOTR; settings: 320 g/ha, Viola tricolor
In short: (§1)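 Read-out is visual percent damage relative to untreated pots, with 100% meaning dead plants and 0% meaning no difference, assessed roughly three weeks after treatment. Compounds were applied pre-emergence to the covering soil at up to 320 g/ha.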

[2] = tested on: Brassica napus (BRSNW); settings: crop plant compatibility, in comparison to untreated controls
In short: (§2)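 Scoring: visual, % of untreated control, about 3 weeks after a pre-emergence application to the soil surface. Application used WP or EC formulations diluted in water with 0.5% additive at 600 l/ha; dosage levels are marked by suffixes a, b and c.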

[3] = tested on: Glycine max (GLXMA); settings: pre-emergence, crop plant compatibility, in comparison to untreated controls
In short: as §2

[4] = tested on: Oryza sativa (ORYSA); settings: pre-emergence, crop plant compatibility, in comparison to untreated controls
In short: as §2

[5] = tested on: Triticum aestivum (TRZAS); settings: pre-emergence, crop plant compatibility, in comparison to untreated controls
In short: as §2

[6] = tested on: Zea mays (ZEAMX); settings: pre-emergence, crop plant compatibility, in comparison to untreated controls
In short: as §2

[7] = tested on: Oryza sativa (ORYSA); settings: crop plant compatibility
In short: (§3)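 Foliar application at the one-leaf stage: WP/EC formulation, 0.5% additive, 600 l/ha water. Greenhouse-grown in sandy loam. Endpoint is visual % injury relative to untreated controls at about 3 weeks.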

[8] = tested on: Triticum aestivum (TRZAS); settings: crop plant compatibility, effect vs untreated controls
In short: as §3

[9] = tested on: Zea mays (ZEAMX); settings: for Post-emergence action against ZEAMX in %: crop plant compatibility, effect vs untreated controls
In short: as §3

[10] = tested on: Glycine max (GLXMA); experiment: Post-emergence crop plant compatibility, GLXMA; settings: for Post-emergence action against GLXMA in %: effect in comparison to untreated controls
In short: as §3

[11] = tested on: Brassica napus (BRSNW); experiment: Post-emergence crop plant compatibility, BRSNW; settings: effect in comparison to untreated controls
Procedure: Seeds of monocotyledonous and dicotyledonous weeds and crop plants are placed in sandy loam in plastic or organic planting pots, covered with soil and cultivated in a greenhouse under controlled growth conditions. 2 to 3 weeks after sowing, the test plants are treated at the one-leaf stage. The compounds of the invention, formulated in the form of wettable powders (WP) or as emulsion concentrates (EC), are then sprayed onto the green parts of the plants as aqueous suspension or emulsion with addition of 0.5% additive at a water application rate of 600 l/ha (converted). After the test plants have been kept in the greenhouse under optimum growth conditions for about 3 weeks, the activity of the preparations is rated visually in comparison to untreated controls. For example, 100% activity=the plants have died, 0% activity=like control plants.
The observed effects on selected crop plants are reported here in comparison to the untreated controls (values in %). The appendices “a”, “b” and “c” give differentiation by dosage used with otherwise the same crop plants tested.

[12] = tested on: Verconica persica (VERPE); experiment: Pre-emergence herbicidal action against VERPE; settings: dosage 320 g/ha
In short: as §1

[13] = 80 g/ha, effect in comparison to untreated controls

SMILES	Pre-emergence action against BRSNW in % ([2]; 80 g/ha) [%]	Pre-emergence action against BRSNW in % ([2]; 320 g/ha) [%]	Pre-emergence action against GLXMA in % ([3]; 320 g/ha) [%]	Pre-emergence action against ORYSA in % ([4]; 80 g/ha) [%]	Pre-emergence action against ORYSA in % ([4]; 320 g/ha) [%]	Pre-emergence action against TRZAS in % ([5]; 80 g/ha) [%]	Pre-emergence action against TRZAS in % ([5]; 320 g/ha) [%]	Pre-emergence action against ZEAMX in % ([6]; 80 g/ha) [%]	Pre-emergence action against ZEAMX in % ([6]; 320 g/ha) [%]	Post-emergence action against ORYSA in % [7, 13] [%]	Post-emergence action against TRZAS in % ([8]; 80 g/ha) [%]	Post-emergence action against ZEAMX in % ([9]; 80 g/ha) [%]	Post-emergence action against GLXMA in % ([10]; 80 g/ha) [%]	Post-emergence action against BRSNW in % ([11]; 80 g/ha) [%]	other results
O=C(CSc1nn(-c2ccccn2)c(-c2cncc(F)c2)c1Br)NS(=O)(=O)c1ccccc1 [Example I-200]	0	0	20	20	20	0	10	0	0	0	0	0	0	10	Pre-emergence action against VIOTR in % [1]: 100%; Pre-emergence action against GLXMA in % ([3]; 80 g/ha): 20%; Post-emergence action against ORYSA in % ([7]; 320 g/ha, effect in comparison to untreated controls): 0%; Post-emergence action against TRZAS in % ([8]; 320 g/ha): 0%; Post-emergence action against ZEAMX in % ([9]; 320 g/ha): 0%; Post-emergence action against GLXMA ([10]; 320 g/ha, effect vs untreated controls): 0%; Post-emergence action against BRSNW in % ([11]; 320 g/ha): 20%
CCOC(=O)C1CCN(C(=O)COc2nn(-c3ccccn3)c(-c3ccc(F)nc3)c2Br)CC1 [Example I-112]	10	10	20	0	10	0	10	0	10	0	0	10	10	10	Pre-emergence action against VERPE in % [12]: 80%; Post-emergence action against ORYSA in % ([7]; 20 g/ha, effect vs untreated controls): 0%; Post-emergence action against TRZAS in % ([8]; 20 g/ha): 0%; Post-emergence action against ZEAMX in % (crop plant compatibility) ([9]; 20 g/ha, ZEAMX, effect in comparison to untreated controls): 0%; Post-emergence action against GLXMA in % ([10]; 20 g/ha): 0%; Post-emergence action against BRSNW in % ([11]; 20 g/ha): 0%
